The record followed here is patent US3975384A, “2,4,5,6-Tetrasubstituted pyrimidines and salts thereof” (Boehringer Ingelheim GmbH, priority 1973, dated 1976).

Where two headings read alike, the source gives them in different places. Bounds are passed on as bounds.

Data set [1] has as its system platelet adhesiveness in human blood. Nature of the data set: Morris retention test, inhibition of platelet adhesiveness. It is filed as cell-based. The conditions noted are these: 10 min; for inhibition at 10 µM: 10 μ mols/liter, 10 minutes at 37°C, glass beads. The procedure:
2. Determination of inhibiting effect on platelet adhesiveness in human blood by the so-called retention test according to Morris (E. Deutsch, E. Gerlach and K. Moser: 1. Internationales Symposium uber Stoffwechsel und Membranpermeabilitat von Erythrozyten and Thrombozyten, Vienna, 1969; Georg Thieme Verlag, Stuttgart, Germany).
To determine the inhibiting action of the test compound on thrombocyte aggregation, 1 ml of human blood was pipetted into each of a plurality of small test tubes, and the test compound was added to give a final concentration of 5 × 10^-^5 mol/liter or 1 × 10^^-5 mol/liter. The tubes were incubated for 10 minutes at 37°C. 1 gm of glass beads (for gas-chromatography) was added to half of the tubes. Then, the stoppered tubes were attached to a disc mounted for rotation about a horizontal axis and rotated for 1 minute. By this means good contact was obtained between the glass beads and the blood. The tubes were then left standing at room temperature for another hour, after which time a satisfactory sedimentation of erythrocytes had taken place. 0.01 ml of the supernatant plasma was removed, diluted 1:8000 with celloscope solution, and the platelet count was read in a celloscope. The percentage reduction of the stickiness due to the presence of the test compound, compared to the tubes containing no glass beads, was measured (average values of 4- 6 tests).

In data set [2] the test system is platelet aggregation in human blood plasma. The experiment in a line: Born and Cross test, ADP-induced platelet aggregation. The note with it: 10 min, human platelet-rich plasma, 10 minutes at 37°C, read-out: Born and Cross test (ADP) EC50 (concentration which causes a 50% alteration of the "optical density"). It is filed as cell-based. The procedure: 1. Determination of inhibiting effect upon platelet aggregation in human blood plasma by the method of Born and cross, J. Physiol. 170, 397 (1964):
The platelet aggregation was measured in the platelet-rich plasma of normal, healthy human donors. The rate of decline of the optical density of the platelet suspension was measured and recorded photometrically after the addition of adenosine diphosphate (ADP). From the angle of inclination of the density curve, the speed of aggregation was concluded. The optical density was taken as the point on the curve where most light was transmitted. The smallest possible doses of ADP were chosen, but enough to result in irreversible aggregation. The plasma was incubated at 37°C for 10 minutes with varying quantities of the test compound before ADP was added.

Data set [3] is described as follows: Acute toxicity (LD50) in mice. The conditions noted are these: mouse, in vivo, observation time 14 days. The procedure:
The acute toxicity of the test compounds was determined in mice (observation time: 14 days). The LD50 was calculated from the percentage of animals which died within the observation time after administration, i.v. or p.o., of varying doses [see J. Pharmacol. exper. Therap. 96, 99 (1949)].

A short description of data set [4]: Hygroscopicity remark on acid addition salt. Type of data set: physicochemical. The conditions noted are these: printed beside m.p. of the salt.

One may read the inhibition as how much of the control response was suppressed. Usually LD50 stands for the dose at which mortality reaches 50%.

In data set [1], `Cc1nc(N2CCNCC2)nc(N2CC[S+]([O-])CC2)c1[N+](=O)[O-]` [A, 6-methyl-5-nitro-2-piperazino-4-(1-oxido-thiomorpholino)-pyrimidine] showed an inhibition at 10 µM of 92%. Further, in data set [2], the IC50 worked out at 12 nM. For the same compound, the LD50 at 336 h is 160 mg/kg in data set [3] (iv, read-out: LD50 i.v.) and 600 mg/kg in data set [3] (po, read-out: LD50 p.o.).

`Cc1nc(N2CCNCC2)nc(N2CCSCC2)c1[N+](=O)[O-]` [B, 6-methyl-5-nitro-2-piperazino-4-thiomorpholino-pyrimidine] gave an inhibition at 10 µM in data set [1] of 66%. For the same compound, the IC50 in data set [2] worked out at 3000 nM. Also, the LD50 at 336 h was 70 mg/kg in data set [3] (iv, read-out: LD50 i.v.) and 620 mg/kg in data set [3] (po, read-out: LD50 p.o.).

On to `N#Cc1nc(N2CCNCC2)nc(N2CC[S+]([O-])CC2)c1Cl` [C, 5-chloro-6-cyano-2-piperazino-4-(1-oxido-thiomorpholino)-pyrimidine], for which, in data set [1], 10 µM produced 92% inhibition. Besides, the IC50 in data set [2] was 130 nM. Besides, the LD50 at 336 h in data set [3] (iv, read-out: LD50 i.v.) amounted to 101 mg/kg; in data set [3] (po, read-out: LD50 p.o.), 836 mg/kg.

Consider `CCOc1nc(N2CCNCC2)nc(N2CC[S+]([O-])CC2)c1[N+](=O)[O-]` [D, 6-ethoxy-5-nitro-4-(1-oxido-thiomorpholino)-2-piperazino-pyrimidine], for which, in data set [1], the inhibition at 10 µM stood at 100%. Besides, the IC50 in data set [2] worked out at 25 nM. Also, the LD50 at 336 h in data set [3] (iv, read-out: LD50 i.v.) stood at 150 mg/kg; in data set [3] (po, read-out: LD50 p.o.) it was 600 mg/kg.

For `CC(C)Oc1nc(N2CCNCC2)nc(N2CC[S+]([O-])CC2)c1[N+](=O)[O-]` [E, 5-nitro-4-(1-oxido-thiomorpholino)-2-piperazino-6-isopropoxy-pyrimidine], the inhibition at 10 µM in data set [1] amounted to 69%. Also, the IC50 in data set [2] came to 200 nM. The LD50 at 336 h in data set [3] (iv, read-out: LD50 i.v.) amounted to 170 mg/kg; in data set [3] (po, read-out: LD50 p.o.), 500 mg/kg.

`CCC(C)Oc1nc(N2CCNCC2)nc(N2CCS(=O)(=O)CC2)c1[N+](=O)[O-]` (stereo not shown) [F, 6-sec.Butoxy-4-(1,1-dioxido-thiomorpholino)-5-nitro-2-piperazino-pyrimidine] gave an inhibition at 10 µM in data set [1] of 61%. The IC50 in data set [2] was 850 nM. Besides, the median lethal dose (LD50) at 336 h in data set [3] (iv, read-out: LD50 i.v.) was determined as 150 mg/kg; in data set [3] (po, read-out: LD50 p.o.), 1500 mg/kg.

In the case of `CCOc1nc(N2CCNCC2)nc(N2CC[S+]([O-])CC2)c1[N+](=O)[O-]` [Fumarate, 6-Ethoxy-5-nitro-4-(1-oxido-thiomorpholino)-2-piperazino-pyrimidine], the hygroscopicity result in data set [4] is on record as “hydroscopic”.

In the case of `CSc1nc(N2CCN(C=O)CC2)nc(N2CC[S+]([O-])CC2)c1[N+](=O)[O-]` [G, 6-methylthio-5-nitro-4-(1-oxido-thiomorpholino)-2-(N'-formyl-piperazino)-pyrimidine], in data set [1], the inhibition at 10 µM came to 2%. The IC50 in data set [2] amounted to 50000 nM. Besides, the LD50 at 336 h in data set [3] (po, read-out: LD50 p.o.) is above 1000 mg/kg.

In turn, `CC(=O)CC(=O)N1CCN(c2nc(C)c([N+](=O)[O-])c(N3CC[S+]([O-])CC3)n2)CC1` [H, 6-methyl-5-nitro-4-(1-oxido-thiomorpholino)-2-(N'-acetoacetyl-piperazino)-pyrimidine] had an inhibition at 30 µM in data set [1] (Concentration: 30μ mols/liter (footnote +)) of 11%. Also, the IC50 in data set [2] was 100000 nM. Moreover, the LD50 at 336 h in data set [3] (po, read-out: LD50 p.o.) was above 1000 mg/kg.
